Experimental data reported in ChEMBL document CHEMBL4507268 (2021).

Key:
[1] = biological target: Cyclin-dependent kinase 2 (Homo sapiens) (UniProt P24941); conditions: Compound concentration 1000.0 nM
[2] = biological target: Death-associated protein kinase 1 (Homo sapiens) (UniProt P53355); conditions: Compound concentration 1000.0 nM
[3] = biological target: Tyrosine-protein kinase Fyn (Homo sapiens) (UniProt P06241); conditions: Compound concentration 1000.0 nM
[4] = biological target: Mitogen-activated protein kinase kinase kinase kinase 1 (Homo sapiens) (UniProt Q92918); conditions: Compound concentration 1000.0 nM
[5] = biological target: T1, Tyrosine-protein kinase JAK3 (Homo sapiens) (UniProt P52333); conditions: Compound concentration 1000.0 nM
T1 sequence (whole entry): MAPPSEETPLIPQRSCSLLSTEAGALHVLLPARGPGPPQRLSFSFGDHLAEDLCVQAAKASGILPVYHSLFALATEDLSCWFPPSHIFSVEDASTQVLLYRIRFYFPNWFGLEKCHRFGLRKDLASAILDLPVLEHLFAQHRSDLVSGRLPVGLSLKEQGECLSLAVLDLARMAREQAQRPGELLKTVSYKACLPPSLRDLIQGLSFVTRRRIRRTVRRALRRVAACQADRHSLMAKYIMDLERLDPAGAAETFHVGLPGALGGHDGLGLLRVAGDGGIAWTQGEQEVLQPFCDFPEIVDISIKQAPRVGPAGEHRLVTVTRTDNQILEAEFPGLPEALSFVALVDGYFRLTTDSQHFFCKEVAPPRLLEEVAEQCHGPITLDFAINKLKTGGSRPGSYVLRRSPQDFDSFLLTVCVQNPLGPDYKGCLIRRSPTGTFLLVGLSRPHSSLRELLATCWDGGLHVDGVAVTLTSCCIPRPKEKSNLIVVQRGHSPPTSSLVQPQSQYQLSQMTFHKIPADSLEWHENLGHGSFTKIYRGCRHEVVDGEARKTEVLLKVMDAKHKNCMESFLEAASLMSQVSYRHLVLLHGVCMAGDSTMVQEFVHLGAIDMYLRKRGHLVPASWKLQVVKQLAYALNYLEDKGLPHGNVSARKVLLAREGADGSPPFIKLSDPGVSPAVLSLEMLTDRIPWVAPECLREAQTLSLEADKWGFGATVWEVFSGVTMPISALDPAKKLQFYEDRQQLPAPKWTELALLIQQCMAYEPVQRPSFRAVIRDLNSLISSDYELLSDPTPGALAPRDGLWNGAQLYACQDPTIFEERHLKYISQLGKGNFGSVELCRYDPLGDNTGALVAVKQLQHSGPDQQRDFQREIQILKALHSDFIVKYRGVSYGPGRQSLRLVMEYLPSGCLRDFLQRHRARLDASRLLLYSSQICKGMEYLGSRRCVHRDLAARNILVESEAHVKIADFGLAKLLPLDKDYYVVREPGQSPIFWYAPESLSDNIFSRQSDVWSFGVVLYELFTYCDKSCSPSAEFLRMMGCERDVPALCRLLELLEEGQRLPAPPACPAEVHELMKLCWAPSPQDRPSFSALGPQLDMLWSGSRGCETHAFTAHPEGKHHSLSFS

[6] = biological target: Serine/threonine-protein kinase 10 (Homo sapiens) (UniProt O94804); conditions: Compound concentration 1000.0 nM
[7] = biological target: Leucine-rich repeat serine/threonine-protein kinase 2 (Homo sapiens) (UniProt Q5S007); conditions: Compound concentration 1000.0 nM
[8] = biological target: Maternal embryonic leucine zipper kinase (Homo sapiens) (UniProt Q14680); conditions: Compound concentration 1000.0 nM
[9] = biological target: Serine/threonine-protein kinase N1 (Homo sapiens) (UniProt Q16512); conditions: Compound concentration 1000.0 nM
[10] = biological target: T2, Serine/threonine-protein kinase Sgk1 (Homo sapiens) (UniProt O00141); conditions: Compound concentration 1000.0 nM
T2 sequence (whole entry): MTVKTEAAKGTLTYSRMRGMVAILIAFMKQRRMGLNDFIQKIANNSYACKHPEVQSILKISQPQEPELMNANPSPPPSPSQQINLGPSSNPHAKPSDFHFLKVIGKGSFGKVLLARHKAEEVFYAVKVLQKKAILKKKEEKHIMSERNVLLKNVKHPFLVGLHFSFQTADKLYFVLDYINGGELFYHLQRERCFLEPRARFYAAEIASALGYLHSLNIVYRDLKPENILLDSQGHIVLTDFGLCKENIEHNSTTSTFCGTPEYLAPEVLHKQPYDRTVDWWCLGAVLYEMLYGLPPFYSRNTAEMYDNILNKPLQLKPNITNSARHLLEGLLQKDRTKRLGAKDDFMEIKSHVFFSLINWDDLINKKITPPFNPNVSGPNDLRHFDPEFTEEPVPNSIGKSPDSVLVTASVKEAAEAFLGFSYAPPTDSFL

[11] = biological target: T3, Tyrosine-protein kinase receptor TYRO3 (Homo sapiens) (UniProt Q06418); conditions: Compound concentration 1000.0 nM
T3 sequence (whole entry): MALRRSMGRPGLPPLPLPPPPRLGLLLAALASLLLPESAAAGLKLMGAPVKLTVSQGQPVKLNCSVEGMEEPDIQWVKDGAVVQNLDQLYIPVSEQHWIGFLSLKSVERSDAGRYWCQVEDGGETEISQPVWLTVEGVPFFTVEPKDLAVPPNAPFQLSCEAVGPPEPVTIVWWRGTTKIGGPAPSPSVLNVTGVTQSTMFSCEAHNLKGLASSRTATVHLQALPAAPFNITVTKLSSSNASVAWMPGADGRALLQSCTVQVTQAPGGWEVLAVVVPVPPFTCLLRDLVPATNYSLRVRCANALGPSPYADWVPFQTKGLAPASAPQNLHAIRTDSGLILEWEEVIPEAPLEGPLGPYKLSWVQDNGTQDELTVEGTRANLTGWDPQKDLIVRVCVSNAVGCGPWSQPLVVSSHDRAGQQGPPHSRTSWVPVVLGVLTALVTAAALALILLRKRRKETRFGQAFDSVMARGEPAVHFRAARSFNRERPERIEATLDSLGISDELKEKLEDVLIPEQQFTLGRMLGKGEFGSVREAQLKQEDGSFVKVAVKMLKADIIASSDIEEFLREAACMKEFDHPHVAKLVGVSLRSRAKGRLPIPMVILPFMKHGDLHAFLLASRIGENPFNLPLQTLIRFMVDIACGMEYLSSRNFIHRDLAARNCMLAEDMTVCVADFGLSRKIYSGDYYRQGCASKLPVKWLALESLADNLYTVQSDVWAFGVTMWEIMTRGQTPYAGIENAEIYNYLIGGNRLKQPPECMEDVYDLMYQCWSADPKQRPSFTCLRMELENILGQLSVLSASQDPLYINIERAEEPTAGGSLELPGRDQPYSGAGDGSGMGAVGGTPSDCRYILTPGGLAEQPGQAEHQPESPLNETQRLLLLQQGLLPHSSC

[12] = biological target: 5-hydroxytryptamine receptor 3A (Homo sapiens) (UniProt P46098); conditions: Compound concentration 10.0 uM
Sequence of 5-hydroxytryptamine receptor 3A (Homo sapiens) (P46098 whole entry): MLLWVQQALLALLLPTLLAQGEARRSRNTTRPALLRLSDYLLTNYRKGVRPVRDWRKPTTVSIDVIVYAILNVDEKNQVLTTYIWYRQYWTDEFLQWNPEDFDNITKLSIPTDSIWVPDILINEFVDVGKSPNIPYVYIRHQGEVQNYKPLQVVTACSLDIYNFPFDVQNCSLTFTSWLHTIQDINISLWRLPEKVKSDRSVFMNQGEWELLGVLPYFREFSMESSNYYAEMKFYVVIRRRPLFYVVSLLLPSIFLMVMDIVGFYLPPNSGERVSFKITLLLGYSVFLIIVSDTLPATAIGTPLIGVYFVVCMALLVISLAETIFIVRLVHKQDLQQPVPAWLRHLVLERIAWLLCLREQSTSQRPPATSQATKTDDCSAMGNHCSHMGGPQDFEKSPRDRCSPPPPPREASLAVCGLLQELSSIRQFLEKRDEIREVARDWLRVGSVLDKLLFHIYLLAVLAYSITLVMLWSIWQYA

Sequence of Serine/threonine-protein kinase N1 (Homo sapiens) (Q16512 2-942 limits assumed): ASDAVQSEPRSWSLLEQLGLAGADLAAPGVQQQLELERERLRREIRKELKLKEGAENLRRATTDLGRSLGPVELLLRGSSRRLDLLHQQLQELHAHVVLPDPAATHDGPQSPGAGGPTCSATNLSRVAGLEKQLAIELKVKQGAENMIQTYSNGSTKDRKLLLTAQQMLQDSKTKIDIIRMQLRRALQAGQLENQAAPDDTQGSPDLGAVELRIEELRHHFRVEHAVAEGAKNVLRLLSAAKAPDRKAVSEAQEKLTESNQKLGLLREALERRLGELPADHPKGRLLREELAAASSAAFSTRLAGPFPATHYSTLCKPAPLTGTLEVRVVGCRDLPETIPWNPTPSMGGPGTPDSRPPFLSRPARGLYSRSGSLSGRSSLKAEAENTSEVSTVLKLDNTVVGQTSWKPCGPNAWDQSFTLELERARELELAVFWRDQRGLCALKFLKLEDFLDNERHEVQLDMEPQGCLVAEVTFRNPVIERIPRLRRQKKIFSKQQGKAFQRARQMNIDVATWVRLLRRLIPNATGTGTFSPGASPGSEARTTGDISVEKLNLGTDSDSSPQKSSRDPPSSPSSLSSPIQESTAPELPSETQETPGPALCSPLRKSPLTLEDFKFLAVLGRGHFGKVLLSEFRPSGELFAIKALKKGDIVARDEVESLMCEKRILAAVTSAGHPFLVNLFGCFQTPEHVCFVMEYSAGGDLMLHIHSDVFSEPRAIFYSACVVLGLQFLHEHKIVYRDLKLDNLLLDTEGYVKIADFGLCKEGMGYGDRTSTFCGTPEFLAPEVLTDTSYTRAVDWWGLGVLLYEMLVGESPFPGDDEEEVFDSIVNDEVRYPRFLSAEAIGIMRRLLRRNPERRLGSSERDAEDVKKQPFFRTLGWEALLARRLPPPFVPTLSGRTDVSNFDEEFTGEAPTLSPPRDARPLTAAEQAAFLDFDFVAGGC
Sequence of Tyrosine-protein kinase Fyn (Homo sapiens) (P06241 2-537 limits assumed): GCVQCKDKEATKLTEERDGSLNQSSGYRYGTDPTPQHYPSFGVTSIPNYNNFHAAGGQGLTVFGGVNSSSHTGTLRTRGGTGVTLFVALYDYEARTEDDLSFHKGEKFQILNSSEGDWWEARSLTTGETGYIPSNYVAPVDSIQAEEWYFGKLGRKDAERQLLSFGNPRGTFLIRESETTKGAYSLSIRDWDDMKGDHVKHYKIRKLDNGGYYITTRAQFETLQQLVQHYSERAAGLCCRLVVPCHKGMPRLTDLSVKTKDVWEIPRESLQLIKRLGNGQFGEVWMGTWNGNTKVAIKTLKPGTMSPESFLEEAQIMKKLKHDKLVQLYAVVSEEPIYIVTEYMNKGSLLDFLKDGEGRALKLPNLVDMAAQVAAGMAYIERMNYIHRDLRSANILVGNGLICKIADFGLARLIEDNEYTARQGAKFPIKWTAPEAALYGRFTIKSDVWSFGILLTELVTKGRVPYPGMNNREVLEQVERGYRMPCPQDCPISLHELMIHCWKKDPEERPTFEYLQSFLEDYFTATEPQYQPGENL
Sequence of Mitogen-activated protein kinase kinase kinase kinase 1 (Homo sapiens) (Q92918 whole entry, looked up): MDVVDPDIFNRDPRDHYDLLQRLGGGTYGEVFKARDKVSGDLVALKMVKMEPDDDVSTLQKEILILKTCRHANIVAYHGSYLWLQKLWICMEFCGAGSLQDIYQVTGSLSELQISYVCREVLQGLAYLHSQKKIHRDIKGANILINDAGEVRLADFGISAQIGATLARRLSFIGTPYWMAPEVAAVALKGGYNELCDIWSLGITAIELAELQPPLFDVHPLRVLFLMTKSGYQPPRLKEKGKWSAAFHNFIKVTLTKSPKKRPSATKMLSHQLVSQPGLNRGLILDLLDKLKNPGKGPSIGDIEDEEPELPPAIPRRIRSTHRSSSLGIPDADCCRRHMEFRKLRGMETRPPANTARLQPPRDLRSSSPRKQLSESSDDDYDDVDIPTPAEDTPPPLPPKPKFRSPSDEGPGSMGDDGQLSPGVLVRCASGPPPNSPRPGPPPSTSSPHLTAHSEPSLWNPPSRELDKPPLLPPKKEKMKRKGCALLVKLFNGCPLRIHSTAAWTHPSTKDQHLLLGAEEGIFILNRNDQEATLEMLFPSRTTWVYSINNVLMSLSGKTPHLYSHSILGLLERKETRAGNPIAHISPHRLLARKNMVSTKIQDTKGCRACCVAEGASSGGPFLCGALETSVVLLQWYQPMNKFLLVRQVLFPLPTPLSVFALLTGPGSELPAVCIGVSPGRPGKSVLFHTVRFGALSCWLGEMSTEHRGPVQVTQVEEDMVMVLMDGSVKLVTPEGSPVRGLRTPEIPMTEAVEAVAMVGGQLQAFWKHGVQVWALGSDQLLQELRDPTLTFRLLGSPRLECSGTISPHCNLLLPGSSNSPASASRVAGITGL
Sequence of Serine/threonine-protein kinase 10 (Homo sapiens) (O94804 whole entry, looked up): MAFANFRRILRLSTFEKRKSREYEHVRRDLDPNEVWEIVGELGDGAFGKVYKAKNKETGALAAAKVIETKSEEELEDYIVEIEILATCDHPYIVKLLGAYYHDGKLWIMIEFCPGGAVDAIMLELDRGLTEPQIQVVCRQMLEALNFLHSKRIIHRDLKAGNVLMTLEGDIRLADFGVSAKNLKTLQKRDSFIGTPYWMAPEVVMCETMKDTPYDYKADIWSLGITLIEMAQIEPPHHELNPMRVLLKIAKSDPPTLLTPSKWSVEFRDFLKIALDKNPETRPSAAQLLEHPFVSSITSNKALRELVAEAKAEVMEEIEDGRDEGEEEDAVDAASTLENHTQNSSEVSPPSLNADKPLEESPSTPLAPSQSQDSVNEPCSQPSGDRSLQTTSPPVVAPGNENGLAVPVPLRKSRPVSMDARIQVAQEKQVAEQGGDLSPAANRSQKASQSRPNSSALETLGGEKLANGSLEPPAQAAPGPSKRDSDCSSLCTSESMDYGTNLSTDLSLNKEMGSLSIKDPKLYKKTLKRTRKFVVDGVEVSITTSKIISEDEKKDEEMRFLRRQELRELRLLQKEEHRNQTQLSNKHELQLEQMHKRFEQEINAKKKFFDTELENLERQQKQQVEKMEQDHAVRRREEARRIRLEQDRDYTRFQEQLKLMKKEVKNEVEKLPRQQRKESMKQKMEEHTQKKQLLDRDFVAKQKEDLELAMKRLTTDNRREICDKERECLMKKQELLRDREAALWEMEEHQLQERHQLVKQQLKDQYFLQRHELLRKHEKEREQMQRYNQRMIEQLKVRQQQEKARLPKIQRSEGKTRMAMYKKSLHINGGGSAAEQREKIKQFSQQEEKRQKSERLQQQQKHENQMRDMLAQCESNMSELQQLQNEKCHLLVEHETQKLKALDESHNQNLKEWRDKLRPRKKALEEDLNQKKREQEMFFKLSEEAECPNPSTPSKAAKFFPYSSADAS
Sequence of Maternal embryonic leucine zipper kinase (Homo sapiens) (Q14680 whole entry, looked up): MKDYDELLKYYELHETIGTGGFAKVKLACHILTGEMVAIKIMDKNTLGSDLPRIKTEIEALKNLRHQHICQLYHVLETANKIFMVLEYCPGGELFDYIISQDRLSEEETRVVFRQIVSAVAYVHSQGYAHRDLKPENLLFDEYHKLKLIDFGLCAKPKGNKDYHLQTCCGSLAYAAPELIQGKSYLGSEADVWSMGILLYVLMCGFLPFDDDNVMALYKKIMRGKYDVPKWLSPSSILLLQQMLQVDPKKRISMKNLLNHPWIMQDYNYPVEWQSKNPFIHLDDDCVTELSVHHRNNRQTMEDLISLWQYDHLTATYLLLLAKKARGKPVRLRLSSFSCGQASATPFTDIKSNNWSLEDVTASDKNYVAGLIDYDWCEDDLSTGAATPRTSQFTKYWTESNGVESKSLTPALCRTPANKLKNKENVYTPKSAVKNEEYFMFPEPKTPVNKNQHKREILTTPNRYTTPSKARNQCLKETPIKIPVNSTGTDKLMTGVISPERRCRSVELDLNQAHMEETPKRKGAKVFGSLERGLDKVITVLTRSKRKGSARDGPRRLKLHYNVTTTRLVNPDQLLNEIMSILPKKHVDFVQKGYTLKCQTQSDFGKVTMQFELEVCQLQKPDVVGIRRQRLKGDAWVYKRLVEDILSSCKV

Cc1nc(C2CCN(C(=O)c3ccc(OC(F)(F)F)cc3N)CC2)c2ncc(N3CCN(C)CC3)cc2n1 [BAY-693]
inactive: residual activity [1] 87% | residual activity [2] 95% | residual activity [3] 96% | residual activity [4] 96% | residual activity [5] 100% | residual activity [6] 96% | residual activity [7] 89% | residual activity [8] 93% | residual activity [9] 100% | residual activity [10] 100% | residual activity [11] 100% | inhibition [12] 6.25%

CN1CCN(c2cnc3c(C4CCN(C(=O)c5ccc(OC(F)(F)F)cc5N)CC4)ncnc3c2)CC1 [BAY-885]
inactive: residual activity [1] 100% | residual activity [2] 100% | residual activity [3] 100% | residual activity [4] 88% | residual activity [5] 100% | residual activity [6] 52% | residual activity [7] 100% | residual activity [8] 85% | residual activity [9] 100% | residual activity [10] 100% | residual activity [11] 100% | inhibition [12] 5.22%
